Measurements published in article PMC12059162 (Scientific Reports, 2025).

Columns and labels:
[1] = tested on: SMAC; assay: Human Apoptosis Array in PANC-1 cells; details: PANC-1, 0.5 µM, 72 h
[2] = tested on: TRAIL; assay: qPCR apoptotic gene expression in PANC-1 cells; details: PANC-1, 25 µM, any of the time points (3-48 h)
[3] = tested on: PANC-1 cells; assay: Holographic microscopy morphometry (HoloMonitor M4); format: cell-based, human; details: PANC-1, 0.5 µM, 72 h
Procedure: To follow the morphometric changes, a holographic transmission microscope (HoloMonitor M4; Phase Holographic Imaging AB, Lund, Sweden) was used, which uses a laser to produce 3D images of the cells[51],[52]. This […] imaging technique allows us to monitor cell morphological changes in real-time. First, the cells were seeded at a concentration of 3.5 × 10^5 cells/flask/4000 µL cell culture medium. […] At least 5 images were taken from each culture dish, taking care to assess different fields of view. These images were evaluated using the microscope software (Hstudio M4). We assessed the average area and the average optical thickness of the cells.

[4] = tested on: phospho-p53 (S46); assay: Human Apoptosis Array in PANC-1 cells; details: PANC-1, 0.5 µM, 72 h
[5] = tested on: p53; assay: qPCR apoptotic gene expression in PANC-1 cells; details: PANC-1, 25 µM, 48 h, normalised to DMSO control
[6] = in vitro; details: mouse
[7] = tested on: EBC-1 cells; assay: alamarBlue cell viability; details: Homo sapiens, EBC-1, 72 h
[8] = tested on: phospho-p53 (S392); assay: Human Apoptosis Array in PANC-1 cells; details: PANC-1, 0.5 µM, 72 h
[9] = tested on: cleaved caspase-3; assay: Human Apoptosis Array in PANC-1 cells; details: PANC-1, 0.5 µM, 72 h
[10] = tested on: A2058 cells; assay: alamarBlue cell viability; details: Homo sapiens, A2058, 72 h, read-out: Viability (%) after 72-h treatment
[11] = tested on: phospho-p53 (S15); assay: Human Apoptosis Array in PANC-1 cells; details: PANC-1, 0.5 µM, 72 h
[12] = tested on: PANC-1 cells; assay: Annexin-V/7AAD early and late apoptosis flow cytometry; format: cell-based, human; details: PANC-1, 0.5 µΜ, 72 h
Procedure: For apoptosis measurements, Annexin-V positive/7AAD (7-Aminoactinomycin D) negative, early apoptotic and Annexin-V/ 7AAD double positive, late apoptotic cells were differentiated using a BD FACSCalibur (BD FACSCalibur, Becton-Dickinson, San Jose, CA, USA) flow cytometer[49],[50]. […] After 24, 48, and 72 h treatment, cells were harvested with 300 µL TrypLE (Sigma Ltd. St. Louis, MO, USA). Fresh cell culture medium was then added to stop the effect of TrypLE and the harvested cells were centrifuged for 5 min (300 g). Then, the supernatant was removed, and cells were resuspended in 300 µL of Annexin binding buffer (Sony Biotechnology, Weybridge, UK). For labelling, 3–3 µL of Annexin-V-FITC (Sony Biotechnology, Weybridge, UK) and 7AAD (Sony Biotechnology, Weybridge, UK) were added, followed by 10 min incubation at room temperature in the dark. For flow cytometric analysis (BD FACSCalibur, Becton–Dickinson, San Jose, CA, USA), a minimum of 10^4 cells/sample was measured. Annexin-V was detected using the FL-1 channel (530/30), and 7AAD was detected using the FL-3 channel (670 LP). In each treatment group, 3 parallel samples were analysed. The results were evaluated using Flowing Software 2.5.1 (Turku Centre of Biotechnology, Turku, Finland).

[13] = cited from earlier work
[14] = tested on: cIAP-1; assay: Human Apoptosis Array in PANC-1 cells; details: PANC-1, 0.5 µM, 72 h
[15] = in vitro; details: human
[16] = tested on: XIAP; assay: Human Apoptosis Array in PANC-1 cells; details: PANC-1, 0.5 µM, 72 h
[17] = tested on: FADD; assay: Human Apoptosis Array in PANC-1 cells; details: PANC-1, 0.5 µM, 72 h
[18] = tested on: PANC-1 cells; assay: xCELLigence SP impedimetric cell viability; details: Homo sapiens, PANC-1, 72 h
[19] = tested on: MIA PaCa-2 cells; assay: alamarBlue cell viability; details: Homo sapiens, MIA PaCa-2, 72 h
[20] = tested on: PANC-1 cells; assay: Cell cycle analysis (PI, flow cytometry)
[21] = tested on: caspase-3/7; assay: CellEvent Caspase-3/7 activity imaging in PANC-1 cells; details: PANC-1, 0.5 µM, 72 h, normalised to DMSO control (n = 1)
[22] = tested on: COLO-205 cells; assay: alamarBlue cell viability; details: Homo sapiens, COLO 205, 72 h, read-out: Viability (%) after 72-h treatment
[23] = tested on: HSP60; assay: Human Apoptosis Array in PANC-1 cells; details: PANC-1, 0.5 µM, 72 h
[24] = tested on: MIA PaCa-2 cells; assay: Cell cycle analysis (PI, flow cytometry); details: MIA PaCa-2, 0.5 µM, 48 h
[25] = read-out: IC50 values (μM) 72 hours
[26] = read-out: Viability (%) after 72-h treatment

**Q.** For Cc1ccccc1CN1C(=O)C2=C(CCN(Cc3ccccc3)C2)N2CCN=C12 [ONC201, reference compound], which SMAC protein level [1] is on record?
**A.** The SMAC protein level was “significantly increased”.

**Q.** And the “TRAIL induction (mRNA)” value [2]?
**A.** Its value is “not detected”.

**Q.** And the “Effect on cell morphology” value [3]?
**A.** The value was “did not affect cell morphology”.

**Q.** And the “phospho-p53 (S46) protein level” value [4]?
**A.** Its value is “significantly increased”.

**Q.** And the “p53 mRNA expression” value [5]?
**A.** Its value is 3.3 fold.

**Q.** What about the viability at 72 h, 0.5 µM [6] of the same compound?
**A.** The viability at 72 h, 0.5 µM was 99.4 ± 1.8%.

**Q.** And the viability at 72 h, 10 µM [6]?
**A.** The viability at 72 h, 10 µM was 89.2 ± 6.3%.

**Q.** And the viability at 72 h, 25 µM [6]?
**A.** The viability at 72 h, 25 µM was 89 ± 5.6%.

**Q.** What about the IC50 [7, 25] of the same compound?
**A.** The IC50 was 5.72 µM.

**Q.** What about the viability at 0.5 µM [7, 26] of the same compound?
**A.** Its viability at 0.5 µM is 101 ± 1.6%.

**Q.** And the viability at 10 µM [7, 26]?
**A.** The viability at 10 µM was 47.1 ± 2.2%.

**Q.** And the viability at 25 µM [7, 26]?
**A.** The viability at 25 µM was 45.5 ± 2%.

**Q.** And the “phospho-p53 (S392) protein level” value [8]?
**A.** The value was “significantly increased”.

**Q.** And the “cleaved caspase-3 protein level” value [9]?
**A.** Its value is “significantly increased”.

**Q.** And the viability at 0.5 µM [10]?
**A.** Its viability at 0.5 µM is 101 ± 1.7%.

**Q.** And the viability at 10 µM [10]?
**A.** Its viability at 10 µM is 73.7 ± 4.5%.

**Q.** And the viability at 25 µM [10]?
**A.** Its viability at 25 µM is 62.1 ± 8.7%.

**Q.** And the “phospho-p53 (S15) protein level” value [11]?
**A.** Its value is “significantly increased”.

**Q.** What about the Apoptosis-inducing effect [12] of the same compound?
**A.** Its Apoptosis-inducing effect is “no apoptosis-inducing effect”.

**Q.** What about the logP [13] of the same compound?
**A.** The logP was 2.3.

**Q.** What about the cIAP-1 protein level [14] of the same compound?
**A.** Its cIAP-1 protein level is “increase”.

**Q.** And the viability at 72 h, 0.37 µM [15]?
**A.** Its viability at 72 h, 0.37 µM is 115 ± 1.4%.

**Q.** What about the viability at 72 h, 8.6 µM [15] of the same compound?
**A.** The viability at 72 h, 8.6 µM was 88.3 ± 7.4%.

**Q.** What about the viability at 72 h, 25 µM [15] of the same compound?
**A.** The viability at 72 h, 25 µM was 74.9 ± 8.6%.

**Q.** What about the XIAP protein level [16] of the same compound?
**A.** Its XIAP protein level is “increase”.

**Q.** What about the FADD protein level [17] of the same compound?
**A.** Its FADD protein level is “significantly increased”.

**Q.** And the IC50 [18, 25]?
**A.** Its IC50 is 6.1 µM.

**Q.** And the viability at 0.5 µM [18, 26]?
**A.** Its viability at 0.5 µM is 105 ± 5.2%.

**Q.** And the viability at 10 µM [18, 26]?
**A.** The viability at 10 µM was 16 ± 2.4%.

**Q.** What about the viability at 25 µM [18, 26] of the same compound?
**A.** The viability at 25 µM was 10.2 ± 2.2%.

**Q.** And the IC50 [19, 25]?
**A.** Its IC50 is 1.12 µM.

**Q.** And the viability at 0.5 µM [19, 26]?
**A.** Its viability at 0.5 µM is 77.6 ± 2.3%.

**Q.** And the viability at 10 µM [19, 26]?
**A.** Its viability at 10 µM is 44.6 ± 2%.

**Q.** What about the viability at 25 µM [19, 26] of the same compound?
**A.** Its viability at 25 µM is 55 ± 1.6%.

**Q.** What about the “Effect on cell cycle” value ([20]; PANC-1, 0.5 µM, 48 h) of the same compound?
**A.** The value was “did not have any influence”.

**Q.** What about the “Increase in cell number in the G2/M phase” value ([20]; PANC-1, 10 and 25 µM, 72 h) of the same compound?
**A.** The value was 2.1 fold.

**Q.** And the “Number of caspase-3/7 active cells, increase” value [21]?
**A.** The value was 6.6 fold.

**Q.** And the viability at 0.5 µM [22]?
**A.** Its viability at 0.5 µM is 97 ± 2.5%.

**Q.** And the viability at 10 µM [22]?
**A.** The viability at 10 µM was 69.7 ± 2.4%.

**Q.** And the viability at 25 µM [22]?
**A.** Its viability at 25 µM is 71 ± 0.7%.

**Q.** And the HSP60 protein level [23]?
**A.** The HSP60 protein level was “increase”.

**Q.** What about the “Effect on cell cycle” value [24] of the same compound?
**A.** Its value is “did not have any influence”.
